In patent US11299782B2, “Methods for predicting anti-cancer response” (Children's Medical Center Corporation, priority 2012, dated 2022):

System: operable TNBC
Experiment: Cisplatin-1 clinical trial: preoperative cisplatin monotherapy, pathologic response
Format: in vivo, human
Procedure: We performed a clinical trial, Cisplatin-1, in which 28 patients with operable TNBC were treated preoperatively with cisplatin monotherapy. […] A second trial, Cisplatin-2, accrued 51 patients with TNBC who received the same preoperative cisplatin regimen as Cisplatin-1, but in combination with the angiogenesis inhibitor bevacizumab (Ryan, P. D., et al. Neoadjuvant cisplatin and bevacizumab in triple negative breast cancer (TNBC): Safety and Efficacy. J Clin Oncol 2009; 27: 551). Response rate in Cisplatin-2 were similar to Cisplatin-1. […] In Cisplatin-2, 8 patients carried a germline BRCA1 or BRCA2 mutation, of which 4 patients achieved a pCR or near pCR to the cisplatin-bevacizumab regimen. In both trials, all patients had research sequencing to determine their germline BRCA1 and BRCA2 status. Thus in some aspects of all the embodiments of the invention, the BRCA1 and BRCA2 status can be determined either simultaneously with or before the allelic imbalance or telomeric allelic imbalance analysis. In some aspects, only patients without BRCA1 or BRCA2 mutations are subjected to the NAI (number of allelic imbalance) or NtAI (number of telomeric allelic imbalance) assays or analyses. Cisplatin was used as an example of platinum comprising cancer therapies. A total of 28 mainly sporadic TNBC patients were treated with cisplatin monotherapy in the neo-adjuvant setting (Silver et al. (2010) J. Clin. Oncol. 28, 1145-1153). Cisplatin response was measured using the semiquantitative Miller-Payne score by pathological assessment of surgical samples after therapy (Ogston et al. (2003) Breast 12, 320-327). […] Therapeutic response was measured using the semiquantitative Miller-Payne grading system, which estimates the percent reduction in invasive tumor volume and cellularity based on pathological assessment of surgical samples after therapy (Ogston, K. N., et al., A new histological grading system to assess response of breastcancers to primary chemotherapy: prognostic significance and survival. Breast 2003; 12: 320-327). […]

SMILES: N.N.[Cl][Pt][Cl] [cisplatin]
- patients with greater than 90% tumor reduction (10 of 28 patients, preoperative cisplatin monotherapy): 36%
- patients progressed on therapy (of 28 patients): 4
- pathologic complete response (pCR), number of women (of 28 patients, 2 of them had BRCA1-associated cancers): 6
